According to patent US20210255193A1, “LYSINE REACTIVE PROBES AND USES THEREOF” (The Scripps Research Institute, priority 2017, published 2021):
Values belong to the compound of their own block, whether it stands above or below them.

Assays:
Assay in all cases: competitive isoTOP-ABPP
[1] = target: T1, SMPD1 Sphingomyelin phosphodiesterase (Homo sapiens, UniProt P17405); format: binding; settings: for isoTOP-ABPP ratio (R) at liganded lysine P17405_K118: sol, 231
T1 construct: isoTOP-ABPP experiments performed in cell lysates (in vitro); endogenous in cells; host or cells: soluble proteome of human cancer cell lines (MDA-MB-231; Ramos and Jurkat also prepared)
T1 sequence (P17405 47-631): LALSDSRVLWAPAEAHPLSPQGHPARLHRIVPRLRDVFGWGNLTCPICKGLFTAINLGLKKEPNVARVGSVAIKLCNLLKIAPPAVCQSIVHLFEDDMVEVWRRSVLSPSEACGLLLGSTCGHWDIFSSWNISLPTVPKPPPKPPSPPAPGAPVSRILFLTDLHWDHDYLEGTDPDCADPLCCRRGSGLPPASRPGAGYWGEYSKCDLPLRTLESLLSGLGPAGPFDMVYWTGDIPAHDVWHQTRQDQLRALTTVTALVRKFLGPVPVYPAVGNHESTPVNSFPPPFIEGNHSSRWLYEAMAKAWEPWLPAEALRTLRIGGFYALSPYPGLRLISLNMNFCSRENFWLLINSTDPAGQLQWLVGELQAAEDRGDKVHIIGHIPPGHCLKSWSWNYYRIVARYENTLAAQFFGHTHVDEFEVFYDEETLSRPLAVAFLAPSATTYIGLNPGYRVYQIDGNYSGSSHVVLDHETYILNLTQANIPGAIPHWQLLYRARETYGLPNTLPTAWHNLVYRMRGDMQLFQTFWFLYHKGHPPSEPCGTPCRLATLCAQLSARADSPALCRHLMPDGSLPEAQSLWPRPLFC
How it was run: (§1)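 Lysate + fragment (50 μM activated ester / 100 μM guanidinylating agent) or DMSO → 0.1 mM STP-alkyne, 1 h, RT → CuAAC to TEV tags (compound light, DMSO heavy) → LC-MS. R = heavy/light MS1 area; liganded lysine if R≥4.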

[2] = target: T2, EEF1G Elongation factor 1-gamma (Homo sapiens, UniProt P26641); format: binding; settings: for isoTOP-ABPP ratio (R) at liganded lysine P26641_K227 / isoTOP-ABPP reactivity ratio at lysine P26641_K227 / R value (DMSO/fragment) for probe 1 labeling: 50 uM, in vitro; for isoTOP-ABPP ratio (R) at liganded lysine P26641_K227: sol, 231; for isoTOP-ABPP reactivity ratio at lysine P26641_K227 / R value (DMSO/fragment) for probe 1 labeling: 231 sol; for R value (DMSO/fragment) for probe 1 labeling: P26641_K227
T2 construct: isoTOP-ABPP experiments performed in cell lysates (in vitro); endogenous in cells; host or cells: soluble proteome of human cancer cell lines (MDA-MB-231; Ramos and Jurkat also prepared)
How it was run: as §1

[3] = target: T3, NONO Non-POU domain-containing octamer-binding protein (Homo sapiens, UniProt Q15233); settings: for isoTOP-ABPP ratio (R) at liganded lysine Q15233_K467 / isoTOP-ABPP reactivity ratio at lysine Q15233_K467 / R value (DMSO/fragment) for probe 1 labeling: 50 uM, in vitro; for isoTOP-ABPP ratio (R) at liganded lysine Q15233_K467: sol, 231; for isoTOP-ABPP reactivity ratio at lysine Q15233_K467 / R value (DMSO/fragment) for probe 1 labeling: 231 sol; for R value (DMSO/fragment) for probe 1 labeling: Q15233_K467
T3 construct: isoTOP-ABPP experiments performed in cell lysates (in vitro); endogenous in cells; host or cells: soluble proteome of human cancer cell lines (MDA-MB-231; Ramos and Jurkat also prepared)
T3 sequence (Q15233 1-471): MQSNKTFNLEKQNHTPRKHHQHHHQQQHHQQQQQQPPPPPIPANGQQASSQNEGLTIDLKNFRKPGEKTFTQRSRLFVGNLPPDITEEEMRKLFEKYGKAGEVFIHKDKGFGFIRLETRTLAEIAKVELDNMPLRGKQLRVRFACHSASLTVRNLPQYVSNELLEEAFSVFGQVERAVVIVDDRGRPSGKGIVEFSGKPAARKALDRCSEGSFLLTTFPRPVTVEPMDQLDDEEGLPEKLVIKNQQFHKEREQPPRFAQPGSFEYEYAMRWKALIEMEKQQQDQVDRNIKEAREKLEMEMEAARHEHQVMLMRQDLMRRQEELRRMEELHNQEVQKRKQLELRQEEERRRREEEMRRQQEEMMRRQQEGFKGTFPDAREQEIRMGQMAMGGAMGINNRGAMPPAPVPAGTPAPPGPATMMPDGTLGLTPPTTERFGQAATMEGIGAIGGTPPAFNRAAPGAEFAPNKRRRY
How it was run: as §1

T2 sequence (P26641 whole entry, the tested form may be a part): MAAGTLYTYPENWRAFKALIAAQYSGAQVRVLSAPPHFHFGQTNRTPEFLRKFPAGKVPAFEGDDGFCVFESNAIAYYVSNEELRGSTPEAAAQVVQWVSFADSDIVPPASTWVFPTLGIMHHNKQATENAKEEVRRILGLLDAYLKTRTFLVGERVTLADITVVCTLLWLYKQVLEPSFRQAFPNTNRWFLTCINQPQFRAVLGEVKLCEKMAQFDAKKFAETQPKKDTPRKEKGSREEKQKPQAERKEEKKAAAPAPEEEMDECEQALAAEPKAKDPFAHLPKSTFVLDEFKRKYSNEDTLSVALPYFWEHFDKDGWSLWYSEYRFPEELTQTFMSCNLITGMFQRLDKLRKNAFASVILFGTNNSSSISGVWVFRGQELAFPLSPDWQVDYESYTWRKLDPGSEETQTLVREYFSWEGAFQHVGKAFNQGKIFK

Compound: CC(C)(C)OC(=O)NCCCC(=O)Oc1ccc([N+](=O)[O-])cc1[N+](=O)[O-] [fragment 41, 2,4-Dinitrophenyl 4-((tert-butoxycarbonyl)amino)butanoate]
isoTOP-ABPP ratio (R) at liganded lysine P17405_K118 ([1]; 50 uM, in vitro): 1.5
isoTOP-ABPP ratio (R) at liganded lysine P26641_K227 [2]: 0.8

Compound: O=C(Oc1ccc([N+](=O)[O-])cc1[N+](=O)[O-])c1ccc(-c2ccccc2)cc1 [fragment 37, 2,4-Dinitrophenyl [1,1′-biphenyl]-4-carboxylate]
isoTOP-ABPP ratio (R) at liganded lysine Q15233_K467 [3]: 0.8

Compound: COc1cc(CCC(=O)Oc2ccc([N+](=O)[O-])cc2[N+](=O)[O-])cc(OC)c1OC [fragment 33, 2,4-Dinitrophenyl 3-(3,4,5-trimethoxyphenyl)propanoate]
isoTOP-ABPP reactivity ratio at lysine Q15233_K467 [3]: 3.7
isoTOP-ABPP reactivity ratio at lysine P26641_K227 [2]: 0.7

R value (DMSO/fragment) for probe 1 labeling [3]: 1.2
R value (DMSO/fragment) for probe 1 labeling ([1]; P17405_K118, 50 uM, 231 sol, in vitro): 1.4
R value (DMSO/fragment) for probe 1 labeling [2]: 0.9
Compound: O=C(Oc1c(F)c(F)c(F)c(F)c1F)C(c1ccccc1)c1ccccc1 [fragment 20, Pentafluorophenyl 2,2-diphenylacetate]

Compound: O=C(Oc1ccc([N+](=O)[O-])cc1[N+](=O)[O-])c1ccc2ccccc2n1 [fragment 35, 2,4-Dinitrophenyl quinoline-2-carboxylate]
isoTOP-ABPP ratio (R) at liganded lysine P17405_K118 ([1]; 50 uM, in vitro): 1.4

Compound: O=C(CCc1ccc2c(c1)OCO2)Oc1ccc([N+](=O)[O-])cc1[N+](=O)[O-] [fragment 45, 2,4-Dinitrophenyl 3-(benzo[d][1,3]dioxol-5-yl)propanoate]
isoTOP-ABPP ratio, lysine P17405_K118 ([1]; 50 uM_231_sol_in vitro): 1.1
isoTOP-ABPP ratio, lysine P26641_K227 ([2]; 50 uM_231_sol_in vitro): 0.6

Compound: O=C(Oc1ccc([N+](=O)[O-])cc1[N+](=O)[O-])c1ccccc1Nc1cccc(C(F)(F)F)c1 [fragment 40, 2,4-Dinitrophenyl 2-((3-(trifluoromethyl)phenyl)amino)benzoate]
isoTOP-ABPP ratio (R) at liganded lysine Q15233_K467 [3]: 4.1

Compound: O=C(ON1C(=O)CCC1=O)c1cc(C(F)(F)F)cc(C(F)(F)F)c1 [fragment 46, 3,5-Bis(trifluoromethyl)benzoic acid NHS ester]
isoTOP-ABPP ratio, lysine Q15233_K467 ([3]; 50 uM_231_sol_in vitro): 0.4
isoTOP-ABPP ratio, lysine P17405_K118 ([1]; 50 uM_231_sol_in vitro): 0.7
isoTOP-ABPP ratio, lysine P26641_K227 ([2]; 50 uM_231_sol_in vitro): 0.6

Compound: O=C(Oc1ccc([N+](=O)[O-])cc1[N+](=O)[O-])c1ccc(Oc2ccccc2)cc1 [fragment 39, 2,4-Dinitrophenyl 4-phenoxybenzoate]
isoTOP-ABPP ratio (R) at liganded lysine P17405_K118 ([1]; 50 uM, in vitro): 0.8

isoTOP-ABPP reactivity ratio at lysine P26641_K227 [2]: 1.1
Compound: O=C(Oc1c(F)c(F)c(F)c(F)c1F)c1ccc2ccccc2n1 [fragment 25, Pentafluorophenyl quinoline-2-carboxylate]

Compound: O=C(Oc1ccc([N+](=O)[O-])cc1[N+](=O)[O-])C(c1ccccc1)c1ccccc1 [fragment 30, 2,4-Dinitrophenyl 2,2-diphenylacetate]
isoTOP-ABPP reactivity ratio at lysine P26641_K227 [2]: 0.9

Compound: O=C(Oc1ccc([N+](=O)[O-])cc1[N+](=O)[O-])c1cc(C(F)(F)F)cc(C(F)(F)F)c1 [fragment 31, 2,4-Dinitrophenyl 3,5-bis(trifluoromethyl)benzoate]
isoTOP-ABPP reactivity ratio at lysine Q15233_K467 [3]: 1.3
isoTOP-ABPP reactivity ratio at lysine P26641_K227 [2]: 2.2

isoTOP-ABPP reactivity ratio at lysine P26641_K227 [2]: 1.2
Compound: O=C(CN1C(=O)c2ccccc2C1=O)Oc1c(F)c(F)c(F)c(F)c1F [fragment 27, Pentafluorophenyl 2-(1,3-dioxoisoindolin-2-yl)acetate]

Compound: CC(=O)Oc1ccc([N+](=O)[O-])cc1[N+](=O)[O-] [fragment 43, 2,4-Dinitrophenyl acetate]
isoTOP-ABPP ratio (R) at liganded lysine Q15233_K467 [3]: 3.1
isoTOP-ABPP ratio (R) at liganded lysine P26641_K227 [2]: 2.3

Compound: O=C(Oc1ccc([N+](=O)[O-])cc1[N+](=O)[O-])C(c1ccccc1)(c1ccccc1)c1ccccc1 [fragment 42, 2,4-Dinitrophenyl 2,2,2-triphenylacetate]
isoTOP-ABPP ratio (R) at liganded lysine Q15233_K467 [3]: 2.5
isoTOP-ABPP ratio (R) at liganded lysine P26641_K227 [2]: 0.7

R value (DMSO/fragment) for probe 1 labeling [3]: 1.5
R value (DMSO/fragment) for probe 1 labeling [2]: 0.8
Compound: O=C(Oc1c(F)c(F)c(F)c(F)c1F)c1cc(C(F)(F)F)cc(C(F)(F)F)c1 [fragment 21, Pentafluorophenyl 3,5-bis(trifluoromethyl)benzoate]

Compound: Cn1cc(CC(=O)Oc2ccc([N+](=O)[O-])cc2[N+](=O)[O-])c2ccccc21 [fragment 32, 2,4-Dinitrophenyl 2-(1-methyl-1H-indol-3-yl)acetate]
isoTOP-ABPP reactivity ratio at lysine Q15233_K467 [3]: 1.2

Compound: O=C(CCc1cn(-c2ccccc2)nc1-c1ccccc1)Oc1ccc([N+](=O)[O-])cc1[N+](=O)[O-] [fragment 29, 2,4-Dinitrophenyl 3-(1,3-diphenyl-1H-pyrazol-4-yl)propanoate]
isoTOP-ABPP reactivity ratio at lysine P17405_K118 ([1]; 50 uM, 231 sol, in vitro): 2.5
isoTOP-ABPP reactivity ratio at lysine P26641_K227 [2]: 0.7

isoTOP-ABPP reactivity ratio at lysine Q15233_K467 [3]: 1.0
isoTOP-ABPP reactivity ratio at lysine P26641_K227 [2]: 0.9
Compound: O=C(Oc1c(F)c(F)c(F)c(F)c1F)C1CCN(C(=O)OCc2ccccc2)CC1 [fragment 24, 1-Benzyl 4-(pentafluorophenyl) piperidine-1,4-dicarboxylate]

isoTOP-ABPP ratio, lysine P17405_K118 ([1]; 50 uM_231_sol_in vitro): 0.9
isoTOP-ABPP ratio, lysine P26641_K227 ([2]; 50 uM_231_sol_in vitro): 0.9
Compound: NC(=O)c1cc(C(F)(F)F)cc(C(F)(F)F)c1 [fragment 51, reference compound]

Compound: N#Cc1ccc(C(=O)Oc2ccc([N+](=O)[O-])cc2[N+](=O)[O-])cc1 [fragment 44, 2,4-Dinitrophenyl 4-cyanobenzoate]
isoTOP-ABPP ratio, lysine Q15233_K467 ([3]; 50 uM_231_sol_in vitro): 0.9
isoTOP-ABPP ratio, lysine P17405_K118 ([1]; 50 uM_231_sol_in vitro): 0.8
isoTOP-ABPP ratio, lysine P26641_K227 ([2]; 50 uM_231_sol_in vitro): 0.8

isoTOP-ABPP reactivity ratio at lysine P26641_K227 [2]: 0.8
Compound: O=C(CCc1coc2cc(F)ccc2c1=O)Oc1c(F)c(F)c(F)c(F)c1F [fragment 26, Pentafluorophenyl 3-(7-fluoro-4-oxo-4H-chromen-3-yl)propanoate]

Compound: O=C(CC12CC3CC(CC(C3)C1)C2)Oc1ccc([N+](=O)[O-])cc1[N+](=O)[O-] [fragment 38, 2,4-Dinitrophenyl 2-(adamantan-1-yl)acetate]
isoTOP-ABPP ratio (R) at liganded lysine P17405_K118 ([1]; 50 uM, in vitro): 1.2

isoTOP-ABPP ratio, lysine P17405_K118 ([1]; 100 uM_231_sol_in vitro): 1.3
isoTOP-ABPP ratio, lysine P26641_K227 ([2]; 100 uM_231_sol_in vitro): 1.2
Compound: CC(C)(C)OC(=O)N=C(NC(=O)OC(C)(C)C)n1cccn1 [fragment 50, reference compound]

isoTOP-ABPP ratio, lysine Q15233_K467 ([3]; 100 uM_231_sol_in vitro): 4.9
isoTOP-ABPP ratio, lysine P17405_K118 ([1]; 100 uM_231_sol_in vitro): 8.4
Compound: COC(=O)NC(=NC(=O)OCC1c2ccccc2-c2ccccc21)n1cccn1 [fragment 49, N-Methoxycarbonyl-N′-9-fluorenylmethoxycarbonyl-pyrazole-1-carboxamidine]

isoTOP-ABPP reactivity ratio at lysine P26641_K227 [2]: 15.0
Compound: CCn1cc(C(=O)Oc2c(F)c(F)c(F)c(F)c2F)c(=O)c2ccc(C)nc21 [fragment 28, Pentafluorophenyl 1-ethyl-7-methyl-4-oxo-1,4-dihydro-1,8-naphthyridine-3-carboxylate]
